In patent US10919903B2, “Nitrogen-containing heterocyclic compounds as FXR modulators” (Hepagene Therapeutics (HK) Limited, priority 2016, dated 2021):

Legend:
[1] = biological target: T1, FXR-LBD (Homo sapiens, UniProt Q96RI1); test: FXR Coactivator Assay (LanthaScreen TR-FRET); type: biochemical
T1 construct: Add 5 μl of 4×FXR-LBD to 384 well assay plates; purchased
T1 sequence (Q96RI1 262-486 limits assumed): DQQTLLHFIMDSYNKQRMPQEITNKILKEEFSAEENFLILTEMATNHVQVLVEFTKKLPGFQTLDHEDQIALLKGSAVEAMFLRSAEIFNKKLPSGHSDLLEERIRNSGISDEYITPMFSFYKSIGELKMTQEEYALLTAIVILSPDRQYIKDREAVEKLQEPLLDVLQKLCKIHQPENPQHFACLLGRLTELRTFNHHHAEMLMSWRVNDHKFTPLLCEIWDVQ
Protocol: (§1) • 1. Hek293T cells were plated at 1.1*10^6/ml into a 100 mm dish. • 2. […] Cells were incubated at 37° C. under 5% CO2 atmosphere. • 3. All of compounds were 3-fold serial diluted from 10 mM stock for 10 doses in DMSO. • 4. Transfer compound dilutions into 384 well assay plates using liquid workstation. • 5. Seed 25 ul HEK293T cells into 384 well assay plate (prepared step 4) at 0.6*10^5/ml. Cells were incubated at 37° C. under 5% CO2 atmosphere overnight. • 6. Add 25 ul steady-Glo™ Luciferase Assay Reagent into each well of 384-well assay plate. • 7. […] Calculate EC50 by fitting % Activity values and log of compound concentrations to nonlinear regression (dose response−variable slope) with Graphpad 5.0. FXR Coactivator Assay Reagents: LanthaScreen™ TR-FRET Farnesoid X Receptor Coactivator Assay GW4064 as a positive control Process: • 1. All of compounds were 3-fold serial diluted from 10 mM stock for 10 doses in DMSO. • 2. Dilute each 100× agonist serial dilution to 2× using Complete Coregulator buffer G. • 3. Transfer 10 μl of each of the 2× agonist serial dilutions to 384 well assay plates. • 4. Add 5 μl of 4×FXR-LBD to 384 well assay plates. • 5. […] Incubate at room temperature protected from light. • 7. […] Calculate EC50 by fitting % Activity values and log of compound concentrations to nonlinear regression (dose response−variable slope) with Graphpad 5.0.

[2] = biological target: T2, FXR (Homo sapiens, UniProt Q96RI1); test: FXR Transactivation Assay (GAL4 luciferase reporter, pBIND-FXR in HEK293T); type: cell-based; conditions: HEK293T cells
T2 construct: expressed in transfected cells; host or cells: HEK293T
T2 sequence (Q96RI1 1-486): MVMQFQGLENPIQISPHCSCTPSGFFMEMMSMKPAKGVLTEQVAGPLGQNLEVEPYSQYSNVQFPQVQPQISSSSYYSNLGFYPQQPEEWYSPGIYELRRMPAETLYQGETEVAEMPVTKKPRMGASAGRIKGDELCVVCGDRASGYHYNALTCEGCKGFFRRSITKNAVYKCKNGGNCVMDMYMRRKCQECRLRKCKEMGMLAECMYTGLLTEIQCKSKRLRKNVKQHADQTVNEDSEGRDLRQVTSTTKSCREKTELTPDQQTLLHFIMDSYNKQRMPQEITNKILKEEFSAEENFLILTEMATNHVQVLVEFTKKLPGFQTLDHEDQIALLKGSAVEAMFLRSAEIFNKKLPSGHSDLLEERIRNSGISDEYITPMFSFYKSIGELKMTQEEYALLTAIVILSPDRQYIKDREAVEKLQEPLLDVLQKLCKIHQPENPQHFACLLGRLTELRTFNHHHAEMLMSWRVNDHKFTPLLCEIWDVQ
Protocol: FXR Transactivation Assay
pGL4.35 [luc2P/9XGAL4 UAS/Hygro]
Steady-Glo™ Luciferase Assay System
GW4064 as a positive control
as §1

EC50 [1]	EC50 [2]	Compound
10 to 100 nM	101 to 400 nM	COc1cc(C(=O)O)cc2sc(N3CCN(Cc4c(-c5c(Cl)cccc5Cl)noc4C4CC4)CC3C)nc12 (stereo not shown) [II-11]
10 to 100 nM	10 to 100 nM	CCC1CN(Cc2c(-c3c(Cl)cccc3Cl)noc2C(C)C)CCN1c1nc2c(OC)cc(C(=O)O)cc2s1 (stereo not shown) [II-18]
